Assay [1] relates to SKNO-1. As to the kind of experiment: Effect on STAT4 level in human SKNO-1 cells upto 5 uM measured for 18 hrs by Western blot analysis. The class given is functional, cell-based. On the technique in general: Immunoblotting shows a protein as a band on a membrane.
In assay [2] the target is T1, Signal transducer and activator of transcription 5A (Homo sapiens, UniProt P42229).
T1 sequence (P42229 whole entry): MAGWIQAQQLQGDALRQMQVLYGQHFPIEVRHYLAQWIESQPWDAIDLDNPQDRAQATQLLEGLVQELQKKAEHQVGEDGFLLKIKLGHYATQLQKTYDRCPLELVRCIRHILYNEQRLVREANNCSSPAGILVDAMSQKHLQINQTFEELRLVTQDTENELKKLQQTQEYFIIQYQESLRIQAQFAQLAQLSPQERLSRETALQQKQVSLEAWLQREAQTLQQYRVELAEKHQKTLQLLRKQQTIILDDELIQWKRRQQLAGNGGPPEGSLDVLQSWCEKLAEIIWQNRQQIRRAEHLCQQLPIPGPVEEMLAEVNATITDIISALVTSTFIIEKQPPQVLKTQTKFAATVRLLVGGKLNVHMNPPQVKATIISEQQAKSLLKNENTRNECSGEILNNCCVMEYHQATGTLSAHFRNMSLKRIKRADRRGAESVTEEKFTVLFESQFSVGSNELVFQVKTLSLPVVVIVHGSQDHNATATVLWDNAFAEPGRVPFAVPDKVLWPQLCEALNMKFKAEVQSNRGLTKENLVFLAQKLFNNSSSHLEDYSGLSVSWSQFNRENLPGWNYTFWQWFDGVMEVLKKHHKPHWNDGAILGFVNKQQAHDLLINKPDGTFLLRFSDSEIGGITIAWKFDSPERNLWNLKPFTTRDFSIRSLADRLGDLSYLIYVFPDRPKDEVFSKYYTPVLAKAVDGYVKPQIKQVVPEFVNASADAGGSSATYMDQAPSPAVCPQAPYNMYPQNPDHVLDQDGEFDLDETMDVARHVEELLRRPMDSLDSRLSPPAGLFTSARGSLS
As to the kind of experiment: Induction of STAT5 degradation in human SKNO-1 cells assessed as reduction in phosphorylated STAT5 level measured for 18 hrs by immunoblotting analysis. It counts as cell-based.

A short description of assay [3]: Antiproliferative activity against human OCI-M2 cells assessed as maximal cell growth inhibition measured for 4 days by celltiter-glo assay relative to control. The following applies: time 4 day. The class given is functional. (In ATP-based viability assays light output follows the ATP content of the culture.)
Assay [4] is described as follows: In vivo induction of degradation of STAT5 in human MV4-11 cells xenografted in SCID mouse assessed as reduction in STAT5 levels at 150 mg/kg, ip measured at 24 hrs by immunoblotting analysis. The class given is functional. Details: scale not given: the % may be the effect or the level left. (In general: Xenograft models place foreign cells or tissue in a host animal.)

Assay [5] can be described thus: Antiproliferative activity against human OCI-M2 cells assessed as cell growth inhibition measured for 4 days by celltiter-glo assay. The following applies: OCI-M2, 96 h.
Assay [6] has as its target T2, STAT5A/STAT5B (Homo sapiens, UniProt P42229+P51692).
T2 sequence (P42229 whole entry): T1 sequence (P42229 whole entry)
T2 sequence (P51692 whole entry): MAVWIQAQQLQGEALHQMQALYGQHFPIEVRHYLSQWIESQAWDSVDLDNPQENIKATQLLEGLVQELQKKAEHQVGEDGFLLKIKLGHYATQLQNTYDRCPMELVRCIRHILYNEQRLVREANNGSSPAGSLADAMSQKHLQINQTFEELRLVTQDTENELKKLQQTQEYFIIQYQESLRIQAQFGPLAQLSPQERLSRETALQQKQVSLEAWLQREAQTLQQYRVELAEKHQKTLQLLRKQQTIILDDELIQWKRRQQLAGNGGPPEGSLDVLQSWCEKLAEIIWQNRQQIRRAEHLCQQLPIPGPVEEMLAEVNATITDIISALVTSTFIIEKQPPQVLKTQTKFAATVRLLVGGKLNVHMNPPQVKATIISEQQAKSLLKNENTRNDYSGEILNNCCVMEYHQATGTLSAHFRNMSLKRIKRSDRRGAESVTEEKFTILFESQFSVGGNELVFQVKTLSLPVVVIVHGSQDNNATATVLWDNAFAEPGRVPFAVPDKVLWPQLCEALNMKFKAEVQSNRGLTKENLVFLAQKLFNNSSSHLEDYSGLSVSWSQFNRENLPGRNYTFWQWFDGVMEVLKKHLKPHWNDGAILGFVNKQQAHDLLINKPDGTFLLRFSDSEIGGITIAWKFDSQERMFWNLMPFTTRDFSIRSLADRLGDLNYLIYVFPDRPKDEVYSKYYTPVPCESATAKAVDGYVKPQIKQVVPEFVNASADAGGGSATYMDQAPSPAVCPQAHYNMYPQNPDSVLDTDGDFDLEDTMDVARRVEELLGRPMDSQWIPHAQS
Nature of the assay: Induction of STAT5A/5B degradation in human RS4-11 cells measured for 18 hrs by immunoblotting analysis. The class given is cell-based.

The test system of assay [7] is MOLM-13. As to the kind of experiment: Antiproliferative activity against human MOLM-13 cells assessed as maximal cell growth inhibition measured for 4 days by celltiter-glo assay relative to control. The class given is functional. The conditions noted are these: time 4 day.
Assay [8] is described as follows: Antiproliferative activity against human BDCM cells assessed as maximal cell growth inhibition measured for 4 days by celltiter-glo assay relative to control. The class given is functional. The conditions noted are these: time 4 day.
Assay [9] deals with HL-60. Nature of the assay: Antiproliferative activity against human HL-60 cells assessed as cell growth inhibition measured for 4 days by celltiter-glo assay. The conditions noted are these: HL-60, 96 h.
Assay [10] relates to MV4-11. As to the kind of experiment: Effect on STAT3 level in human MV4-11 cells upto 5 uM measured for 18 hrs by Western blot analysis. The class given is functional, cell-based.
Assay [11] relates to MV4-11. As to the kind of experiment: Antitumor activity against human MV4-11 cells xenografted in SCID mouse assessed as tumor growth inhibition at 50 mg/kg, ip administered 5 days a week for 3 weeks. The conditions noted are these: MV4-11, 504 h, read-out: TGI. The class given is functional.
Assay [12] addresses T2, STAT5A/STAT5B. Nature of the assay: Induction of STAT5A/5B degradation in human MV4-11 cells measured for 6 hrs by immunoblotting analysis. The class given is cell-based.
The test system of assay [13] is Mus musculus. As to the kind of experiment: In vivo induction of degradation of STAT5 in human MV4-11 cells xenografted in SCID mouse assessed as reduction in STAT5 phosphorylation at Y694 residue at 150 mg/kg, ip measured at 1 hrs by immunoblotting analysis. It counts as functional, organism-based.
Assay [14] relates to OCI-AML2. As to the kind of experiment: Antiproliferative activity against human OCI-AML2 cells assessed as maximal cell growth inhibition measured for 4 days by celltiter-glo assay relative to control. It counts as functional. The following applies: time 4 day.
In assay [15] the test system is SKNO-1. As to the kind of experiment: Effect on STAT1 level in human SKNO-1 cells upto 5 uM measured for 18 hrs by Western blot analysis. The class given is functional, cell-based.
Assay [16] concerns HL-60. As to the kind of experiment: Antiproliferative activity against human HL-60 cells assessed as maximal cell growth inhibition measured for 4 days by celltiter-glo assay relative to control. The class given is functional. The following applies: time 4 day.
The test system of assay [17] is MV4-11. As to the kind of experiment: Effect on STAT2 level in human MV4-11 cells upto 5 uM measured for 18 hrs by Western blot analysis. The class given is functional, cell-based.
The target of assay [18] is T1, Signal transducer and activator of transcription 5A. Nature of the assay: Induction of STAT5 degradation in human SKNO-1 cells measured for 18 hrs by Western blot analysis. The class given is cell-based.
Assay [19] concerns MV4-11. As to the kind of experiment: Effect on STAT1 level in human MV4-11 cells upto 5 uM measured for 18 hrs by Western blot analysis. It counts as functional, cell-based.
Assay [20] is described as follows: Antiproliferative activity against human BDCM cells assessed as cell growth inhibition measured for 4 days by celltiter-glo assay. The following applies: 96 h.
The subject of assay [21] is MOLM-13. Nature of the assay: Antiproliferative activity against human MOLM-13 cells assessed as cell growth inhibition measured for 4 days by celltiter-glo assay. The following applies: MOLM-13, 96 h.
In assay [22] the test system is SKNO-1. Nature of the assay: Effect on STAT6 level in human SKNO-1 cells upto 5 uM measured for 18 hrs by Western blot analysis. It counts as functional, cell-based.

Molecules are shown by their SMILES. Active and inactive are the calls of the source. No cut-off for these calls is given here.

This is an account of results in ChEMBL document CHEMBL5380794, “Discovery of a Potent and Selective STAT5 PROTAC Degrader with Strong Antitumor Activity In Vivo in Acute Myeloid Leukemia” (J Med Chem, 2023).

A word on the DC50: it is the concentration at which degradation of the target reaches its halfway point. The term IC50 denotes the concentration needed to halve the response being measured. `CN(CCCC#Cc1cccc2c1CN(C1CCC(=O)NC1=O)C2=O)C(=O)CCN(C(=O)[C@@H]1CCCN1C(=O)[C@@H](NC(=O)c1cc2cc(C(F)(F)P(=O)(O)O)ccc2s1)C(C)(C)C)c1ccc(-c2nccs2)cc1` (some centres not stated): the result in [1], in [10], in assay [15], in assay [17], in assay [19] and in assay [22] was inactive. The DC50 was 70 nM in assay [2], 0.07 µM in assay [6], 0.05 µM in assay [12] and 100 nM in [18]. Besides, the Imax in [3], in [7], in assay [8], in [14] and in [16] was below 5% throughout. For the same compound, in assay [4], the Activity is above 70%. Moreover, the IC50 in [5], in assay [9], in [20] and in assay [21] was above 15 µM throughout. Also, in assay [11], the inhibition in vivo at 50 mg/kg turned out to be 50%. Moreover, the result in [13] was Active.
